Drawing on ChEMBL document CHEMBL1770076, “(+)-Arisugacin A--computational evidence of a dual binding site covalent inhibitor of acetylcholinesterase” (Bioorg Med Chem Lett, 2011), this text covers IC50 for three molecules.

The target of one assay is Cholinesterase (Homo sapiens, UniProt P06276).
The next assay addresses Acetylcholinesterase (Homo sapiens, UniProt P22303).

Sequence of Cholinesterase (P06276 whole entry): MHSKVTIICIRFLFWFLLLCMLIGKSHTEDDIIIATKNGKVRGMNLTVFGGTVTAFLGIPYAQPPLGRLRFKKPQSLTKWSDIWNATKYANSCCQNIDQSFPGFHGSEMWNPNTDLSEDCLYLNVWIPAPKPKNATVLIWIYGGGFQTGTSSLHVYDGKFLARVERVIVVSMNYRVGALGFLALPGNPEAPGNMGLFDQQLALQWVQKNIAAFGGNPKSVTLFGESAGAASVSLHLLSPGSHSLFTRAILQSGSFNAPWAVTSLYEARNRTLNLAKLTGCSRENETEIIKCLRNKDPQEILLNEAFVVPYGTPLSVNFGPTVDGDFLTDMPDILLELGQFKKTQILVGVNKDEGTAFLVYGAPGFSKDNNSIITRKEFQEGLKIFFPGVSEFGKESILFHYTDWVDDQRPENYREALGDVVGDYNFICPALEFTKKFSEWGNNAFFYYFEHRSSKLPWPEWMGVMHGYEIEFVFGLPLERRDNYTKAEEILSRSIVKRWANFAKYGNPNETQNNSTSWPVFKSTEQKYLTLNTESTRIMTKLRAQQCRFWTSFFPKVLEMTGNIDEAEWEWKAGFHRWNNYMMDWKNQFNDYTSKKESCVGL
Sequence of Acetylcholinesterase (P22303 whole entry): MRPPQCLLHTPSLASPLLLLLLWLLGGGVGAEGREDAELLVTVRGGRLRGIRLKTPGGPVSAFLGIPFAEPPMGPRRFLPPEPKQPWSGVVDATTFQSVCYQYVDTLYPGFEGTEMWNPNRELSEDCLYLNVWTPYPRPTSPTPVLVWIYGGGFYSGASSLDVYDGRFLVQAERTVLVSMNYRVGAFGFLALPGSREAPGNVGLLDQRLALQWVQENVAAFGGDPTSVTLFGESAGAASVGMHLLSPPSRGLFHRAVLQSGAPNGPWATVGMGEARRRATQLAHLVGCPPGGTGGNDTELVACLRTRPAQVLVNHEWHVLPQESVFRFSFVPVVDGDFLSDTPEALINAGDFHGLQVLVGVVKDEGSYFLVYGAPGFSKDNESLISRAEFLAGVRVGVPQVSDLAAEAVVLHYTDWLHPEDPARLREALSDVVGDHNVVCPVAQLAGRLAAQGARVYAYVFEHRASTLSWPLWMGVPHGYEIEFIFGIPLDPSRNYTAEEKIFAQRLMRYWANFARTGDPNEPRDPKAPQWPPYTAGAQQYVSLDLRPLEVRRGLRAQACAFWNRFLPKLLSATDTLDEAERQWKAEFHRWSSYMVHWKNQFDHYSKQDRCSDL
Description for Acetylcholinesterase: Inhibition of AChE-induced amyloid beta aggregation

`COc1ccc(-c2cc3c(c(=O)o2)C[C@]2(O)[C@@]4(C)C(=O)C=CC(C)(C)[C@]4(O)CC[C@@]2(C)O3)cc1OC` came in with an IC50 against Cholinesterase of 18000 nM.

On to `C/C=C1\[C@H]2C=C(C)C[C@]1(N)c1ccc(=O)[nH]c1C2` [HUPERZINE A], for which, on Cholinesterase, the IC50 worked out at 100 nM.

`COc1cc(-c2cc3c(c(=O)o2)C[C@]2(O)[C@@]4(C)C(=O)C=CC(C)(C)[C@]4(O)CC[C@@]2(C)O3)cc(OC)c1OC` [TERRITREM B]: the IC50 on Acetylcholinesterase was found to be 6 nM.
